# Ends that are not written are not given here.
# Legend:
# β3 phosphorylation = details: through binding to αVβ3; ref [32]; cited from earlier work
# Description: (§1) In this study, we started to move towards a functional investigation of the role of VTN(381–397 a.a.) in OA. VTN is known to interact with integrin receptors by its RGD motif, which is positioned far upstream from VTN(381–397 a.a.) on the N-terminal end of VTN. However, Maile and colleagues also previously described a second integrin-binding site located within the HBD between amino acids 365 and 381[32],[33]. […] Considering that the fragment VTN(381–397 ...
# αVβ3 = details: ref [32]; cited from earlier work
# Description: as §1
# integrin αVβ6 = target: T1, integrin αVβ6 (Homo sapiens, UniProt P06756+P18564); assay: Competition study, 125ISIB-echistatin vs ligands on coated αVβ6; assay type: binding; details: competition with 125ISIB-echistatin on α5β1, αVβ1, αVβ3, αVβ5, αVβ6
# T1 construct: purchased R&D System; Minneapolis, MN, USA
# T1 sequence (P06756 31-992 limits assumed): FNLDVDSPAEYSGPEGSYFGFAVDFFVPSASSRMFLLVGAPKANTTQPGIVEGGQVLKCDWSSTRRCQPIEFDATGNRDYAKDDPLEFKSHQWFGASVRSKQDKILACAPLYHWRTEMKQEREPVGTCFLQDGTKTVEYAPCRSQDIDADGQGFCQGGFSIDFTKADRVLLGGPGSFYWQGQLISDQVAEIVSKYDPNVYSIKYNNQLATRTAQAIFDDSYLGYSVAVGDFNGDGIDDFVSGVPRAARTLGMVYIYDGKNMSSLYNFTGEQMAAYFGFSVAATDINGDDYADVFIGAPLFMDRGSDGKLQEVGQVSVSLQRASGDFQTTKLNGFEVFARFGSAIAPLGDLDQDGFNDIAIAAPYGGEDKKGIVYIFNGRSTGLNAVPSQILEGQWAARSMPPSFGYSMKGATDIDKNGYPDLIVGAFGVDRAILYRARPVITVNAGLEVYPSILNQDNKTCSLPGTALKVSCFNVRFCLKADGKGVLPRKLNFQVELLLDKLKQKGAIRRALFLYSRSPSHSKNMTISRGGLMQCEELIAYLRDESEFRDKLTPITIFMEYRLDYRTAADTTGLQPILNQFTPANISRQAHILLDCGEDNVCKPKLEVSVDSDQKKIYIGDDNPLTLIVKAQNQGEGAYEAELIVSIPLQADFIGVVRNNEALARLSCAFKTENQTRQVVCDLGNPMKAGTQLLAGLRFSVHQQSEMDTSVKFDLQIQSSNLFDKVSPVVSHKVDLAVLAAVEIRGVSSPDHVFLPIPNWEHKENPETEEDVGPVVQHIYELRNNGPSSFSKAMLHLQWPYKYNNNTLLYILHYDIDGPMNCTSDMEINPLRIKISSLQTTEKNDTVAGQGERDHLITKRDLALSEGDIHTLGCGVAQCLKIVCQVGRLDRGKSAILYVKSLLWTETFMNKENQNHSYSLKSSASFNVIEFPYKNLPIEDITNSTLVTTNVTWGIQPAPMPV
# T1 sequence (P18564 22-707 limits assumed): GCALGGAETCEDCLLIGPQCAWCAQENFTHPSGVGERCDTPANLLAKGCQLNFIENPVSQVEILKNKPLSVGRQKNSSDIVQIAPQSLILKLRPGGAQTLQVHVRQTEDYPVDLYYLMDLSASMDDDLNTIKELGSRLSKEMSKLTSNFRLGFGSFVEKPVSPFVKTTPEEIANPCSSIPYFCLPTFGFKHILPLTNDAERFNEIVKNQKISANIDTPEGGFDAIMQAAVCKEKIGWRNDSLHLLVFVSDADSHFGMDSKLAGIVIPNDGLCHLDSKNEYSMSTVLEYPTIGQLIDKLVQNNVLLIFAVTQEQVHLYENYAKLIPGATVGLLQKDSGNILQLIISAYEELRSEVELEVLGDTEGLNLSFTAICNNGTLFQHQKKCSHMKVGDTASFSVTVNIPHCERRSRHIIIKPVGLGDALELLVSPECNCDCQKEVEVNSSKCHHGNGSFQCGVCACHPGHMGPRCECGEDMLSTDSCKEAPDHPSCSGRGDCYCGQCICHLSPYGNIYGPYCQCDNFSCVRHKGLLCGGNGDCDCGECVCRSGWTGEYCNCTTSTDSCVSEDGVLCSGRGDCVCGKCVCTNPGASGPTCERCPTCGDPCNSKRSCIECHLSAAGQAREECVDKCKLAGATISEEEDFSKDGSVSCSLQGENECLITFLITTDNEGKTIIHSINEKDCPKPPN
# Description: A competition study was performed to investigate the interaction of VTN(381–397 a.a.) with five different integrins. Radiolabeled echistatin, a disintegrin known to bind integrin receptors, was used as a tracer for the binding assays. Lyophilized echistatin was provided by Bachem (Bubendorf, Switzerland) and radiolabeled by conjugation with a radioiodinated benzoate (^125ISIB) to the epsilon amino group of lysine side chains. For the five integrins, α5β1, αVβ1, αVβ3, αVβ5, and αVβ6 (R&D System; Minneapolis, MN, USA), a solution at 1.8 µg/mL was prepared with integrin-binding buffer (IBB; 20 mM Tris pH 7.4, 150 mM NaCl, 2 mM CaCl2, 1 mM MgCl2, 1 mM MnCl2). Nunc Maxisorp Module plates were coated overnight at 4 °C with integrin complex at 1.8 µg/mL. After the wells were washed with sample buffer (IBB, 0.5% BSA), blocking solution (IBB, 2% BSA) was added, and the microplate was incubated for 2 h at room temperature. The wells were then washed three times with IBB/0.5% BSA. Then, ^125ISIB-echistatin was diluted in sample buffer to fixed concentrations of 4, 4, 8, 8, and 20 nM for α5β1, αVβ1, αVβ3, αVβ5, and αVβ6 competition studies, respectively. The ^125ISIB-echistatin was mixed with sample buffer at a ratio of 1:1 (total binding = control well) or with increasing concentrations of ligands (Supplementary information SI1) [complete VTN, VTN(381–397 a.a.), VTN(365–381 a.a.)] at a ratio 1:1 and added to wells in duplicate. We used 1,4,7-triazacyclononane-1,4,7-triacetic acid (NOTA) as a negative control. […] After rinsing, bound radioactivity was quantified using a gamma counter. The percentage of relative binding of radiolabeled echistatin was calculated as follows: radioactivity in the test well*100/radioactivity in the reference well. […] For comparison of the potency of ligands in inhibiting bound ^125ISIB-echistatin for different integrin complexes, the half-maximal inhibitory concentration (IC50) was calculated. The IC50 value was determined by constructing a dose–response curve and examining the effect of different concentrations of ligands on ^125ISIB-echistatin binding. […]
# To determine if VTN(381–397 a.a.) could interact with integrins, we investigated its ability to compete with radiolabeled echistatin for binding to five different integrin complexes: α5β1, αVβ1, αVβ3, αVβ5 and αVβ6. […] First, the binding affinity of echistatin to the five integrins was measured by determining the equilibrium dissociation constant (KD). […] The fixed concentration of radiolabeled echistatin was determined according to its KD value. For each ligand concentration, the relative binding of ^125ISIB-echistatin to coated integrins was then measured, and values were plotted versus the logarithm of ligand concentration.
sequence,measurement,setting,value
LAKKQRFRHRNRKGYRS [VTN(365–381 a.a.)],effect on β3 phosphorylation,β3 phosphorylation,its binding was sufficient to enhance β3 phosphorylation
same,interaction with αVβ3,αVβ3,could interact with αVβ3
same,integrin binding specificity,integrin αVβ6,only showed a high affinity for integrin αVβ6
